# Results taken from patent US12275985B2, “Redox labeled oligonucleotide probes and their use” (ABBOTT DIAGNOSTICS SCARBOROUGH, INC., priority 2016, dated 2025).
# How the values were obtained:
# [1] = DPV detection of cleaved redox labels in RPA reactions (peak potential and current); assay type: physicochemical; conditions: for E (DPV peak potential of cleaved label) / ΔE vs MB: label cleaved from Fpg probe in RPA, DPV
# Experimental: DNA and RNA amplification by RPA can be monitored in real-time or by end-product detection using the TwistAmp® basic kit with DPV detection. Briefly, a clinical sample (e.g., a clinical swab or wipe) is added to an RPA reagent mixture specific for a target nucleic acid sequence, the reagent mixture containing an Exo or Fpg oligonucleotide probe labeled with a redox-moiety, such as those described above, and maintained at 37° C.-42° C. for a time sufficient for amplification. Incubation in the presence of an ExoIII or Fpg exonuclease results in cleavage of probe/target DNA hybrids which allows for liberation of the redox-moiety (see FIG. 14). The liberated redox-moiety can be detected by, for example, amperometry, voltammetry (e.g., Differential Pulse voltammetry), and AC-impedance. Where the redox label has been cleaved from the probe/target complex (i.e., a sample positive for the target nucleic acid) a peak in current is observed at a voltage which corresponds to the oxidation potential of the label. Where the redox label has not been released from the oligonucleotide probe (i.e., a sample negative for the target nucleic acid), no peak is observed.
# A “DPV output” of a given RPA reaction is determined by measuring the signal current generated by the redox-label present in the reaction in response to applied potentials. The DPV procedure requires the definition of several key parameters: interval period (related to scan rate), step potential, amplitude of the pulse (amp) and time of the pulse (pulse width). An example of these settings were: interval period 0.1 s, step potential 5 mV, pulse amplitude 75 mV and pulse width 30 ms. In addition to these parameters for the actual measurement, the DPV protocol also entails a series of 3 initial sequences of potential changes (“sweeps”) the output of which is not being directly quantified.
# At FIG. 1, a method for electrochemical detection of an amplified nucleic acid target sequence according to an embodiment of the present invention is show. […] In the presence of the target, multiple copies of the DNA strand complementary to the labeled oligonucleotide probe are generated using a nucleic acid amplification method, such as, for example, PCR, RPA (shown), or NEAR. Following amplification, the DNA strand complementary to the labeled oligonucleotide probe anneal (i.e., hybridize) with the probe and form a double-stranded substrate. In the presence of a nuclease, the redox moiety (i.e., redox label) is enzymatically cleaved from (e.g., separated from) from the double-stranded substrate effecting release of the redox label. Once cleaved, the redox moiety (i.e., redox label) is able to diffuse and interact with the electrode and detection of the redox moiety is achieved by, for example, DPV, whereby a potential window (E) is swept in a stepwise fashion, and the Faradaic current (I) associated with reduction of the label is recorded. Diffusing redox labels that have been enzymatically released from oligonucleotide probes generate a larger current response, thus enabling electrochemical detection of target amplification.
# For example, during initial studies on Alere HeartCheck electrodes, redox moieties with a reduction potential (versus a Ag/AgCl reference electrode) of between approximately […] were considered optimal for multiplexing (FIG. 2). In order to resolve two redox moieties which fall within this window, a difference (ΔE) of approximately ≥50 mV in their peak potential is predicted to be sufficient. Thus, in the case of the HeartCheck electrode, there is a theoretical maximum multiplexing capacity of 5 labels within this window. Note however that alternative (electrode-dependent) windows for detection may be determined.
# [2] = Aqueous solubility of redox label; assay type: physicochemical
# [3] = system: InfA[PA] and InfB[PA] DNA; test: Duplexed RPA detection with 1:1 mixture of MB- and PZ9-labelled probes on HeartCheck sensor; design: species or system Influenza A and Influenza B; conditions: duplexed detection at 15 min, 10^7 copies of each target, third order polynomial baseline correction
SMILES,E (DPV peak potential of cleaved label) [1] [V],ΔE vs MB [1],aqueous solubility [2],Emax of calculated Gaussian curve [3] [V],reduction peak potential ([1]; vs Ag/AgCl during DPV in an RPA context) [mV]
"CC/[N+](CCCS(=O)(=O)[O-])=c1/ccc2nc3ccc(N(C)CCC(=O)O)cc3oc-2c1 [PO2, N-(3-(N-methyl(2-carboxyethyl)amino)phenoxazin-7-ylidene)-N-ethyl(3-sulfonatopropyl)aminium chloride]",~−0.44,~−60 mV,good aqueous solubility,–,–
CN(CCCC(=O)O)c1ccc2nc3ccc(N(C)c4ccccc4)cc3[s+]c2c1.[Cl-] [PZ9],–,~+60 mV,–,−0.3046,–
"C[N+](C)=c1ccc2nc3c(cc(NCCC(=O)O)c4ccccc43)oc-2c1.[Cl-] [PO1, N-(5-(2-carboxyethylamino)-9H-benzo[a]phenoxazin-9-ylidene)-N-methylmethanaminium chloride]",~−0.52,~−140 mV,–,–,–
"CN(C)c1ccc2nc3ccc(N(C)C)cc3[s+]c2c1.[Cl-] [Methylene Blue, 3,7-bis(Dimethylamino)-phenothiazin-5-ium chloride]",–,–,–,−0.3731,−320
